Here are results for 14 compounds from ChEMBL document CHEMBL1909046, “DrugMatrix in vitro pharmacology data”.

Data set [1] concerns the target T1, D(4) dopamine receptor (Homo sapiens, UniProt P21917).
T1 sequence (P21917 whole entry): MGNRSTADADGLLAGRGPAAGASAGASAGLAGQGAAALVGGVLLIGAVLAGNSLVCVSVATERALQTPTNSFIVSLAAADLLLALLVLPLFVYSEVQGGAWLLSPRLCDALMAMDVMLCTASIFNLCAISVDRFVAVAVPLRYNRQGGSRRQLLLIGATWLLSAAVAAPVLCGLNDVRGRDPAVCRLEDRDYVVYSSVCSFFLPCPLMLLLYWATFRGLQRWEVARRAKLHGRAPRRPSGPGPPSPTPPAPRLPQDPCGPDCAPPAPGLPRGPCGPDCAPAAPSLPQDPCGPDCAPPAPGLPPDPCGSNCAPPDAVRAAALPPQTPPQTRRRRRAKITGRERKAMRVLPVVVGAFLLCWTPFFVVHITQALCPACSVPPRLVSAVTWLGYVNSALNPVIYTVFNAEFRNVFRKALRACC
Kind of data set: DRUGMATRIX: Dopamine D4.2 radioligand binding (ligand: [3H] Spiperone). To be noted: cho-k1; Not Active = under 50% inhibition at 10 µM. Format: cell membranes, Membrane.

Data set [2] in a line: DRUGMATRIX: Phosphodiesterase PDE4 enzyme inhibition (substrate: [3H]cAMP + cAMP). To be noted: u-937; Not Active = under 50% inhibition at 10 µM.
In data set [3] the target is T2, Progesterone receptor (Bos taurus, UniProt Q690N0).
T2 sequence (Q690N0 whole entry): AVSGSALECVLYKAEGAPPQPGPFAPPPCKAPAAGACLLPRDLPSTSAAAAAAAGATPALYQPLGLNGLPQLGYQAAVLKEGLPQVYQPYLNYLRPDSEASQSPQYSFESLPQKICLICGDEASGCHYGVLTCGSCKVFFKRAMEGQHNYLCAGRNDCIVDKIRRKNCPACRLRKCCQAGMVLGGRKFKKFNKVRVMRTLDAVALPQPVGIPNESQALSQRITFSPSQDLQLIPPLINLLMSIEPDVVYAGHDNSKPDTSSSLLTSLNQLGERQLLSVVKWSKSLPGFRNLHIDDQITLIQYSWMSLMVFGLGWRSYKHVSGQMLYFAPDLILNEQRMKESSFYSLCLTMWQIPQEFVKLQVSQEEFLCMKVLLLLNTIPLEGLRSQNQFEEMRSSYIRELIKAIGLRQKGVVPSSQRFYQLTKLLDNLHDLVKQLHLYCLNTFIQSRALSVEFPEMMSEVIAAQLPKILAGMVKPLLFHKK
Kind of data set: DRUGMATRIX: Progesterone radioligand binding (ligand: [3H] R-5020). Format: tissue-based, Uterus. To be noted: Not Active = under 50% inhibition at 10 µM.

In data set [4] the target is Voltage-gated inwardly rectifying potassium channel KCNH2 (Homo sapiens, UniProt Q12809). To be noted: hek293. Also: in other assays of this panel Not Active means under 50% inhibition at 10 µM.
Data set [5] is described as follows: DRUGMATRIX: Platelet-Derived Growth Factor (PDGF) radioligand binding (ligand: [125I] PDGF). Format: cell-based. Particulars: nih3t3; Not Active = under 50% inhibition at 10 µM.
A short description of data set [6]: DRUGMATRIX: Interleukin IL-1 radioligand binding (ligand: [125I] interleukin 1beta). Format: cell membranes, Membrane. Particulars: nih3t3; Not Active = under 50% inhibition at 10 µM.
Data set [7] has as its target T3, C-C chemokine receptor type 4 (Homo sapiens, UniProt P51679). Also: in other assays of this panel Not Active means under 50% inhibition at 10 µM.
T3 sequence (P51679 whole entry): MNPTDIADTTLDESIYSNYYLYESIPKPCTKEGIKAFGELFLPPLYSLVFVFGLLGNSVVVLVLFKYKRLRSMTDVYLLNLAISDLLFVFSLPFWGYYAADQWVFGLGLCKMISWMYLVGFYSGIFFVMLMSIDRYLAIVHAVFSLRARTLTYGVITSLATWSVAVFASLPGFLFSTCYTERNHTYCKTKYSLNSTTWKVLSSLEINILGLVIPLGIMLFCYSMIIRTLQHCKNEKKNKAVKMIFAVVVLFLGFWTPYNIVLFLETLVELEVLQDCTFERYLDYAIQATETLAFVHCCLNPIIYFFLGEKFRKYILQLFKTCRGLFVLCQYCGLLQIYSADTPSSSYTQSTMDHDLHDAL
The data set is classed as cell membranes, Membrane. To be noted: chem-1.

For data set [8], the target named is Cannabinoid receptor 1 (Homo sapiens, UniProt P21554). Format: cell membranes, Chem-1, Membrane. To be noted: chem-1. Also: in other assays of this panel Not Active means under 50% inhibition at 10 µM.

Broadly, the IC50 is the point on the concentration scale where inhibition reaches its midpoint. A word on the Ki: it is a measure of affinity in units of concentration, obtained from inhibition or displacement.

Where a SMILES comes first, the peptide text is derived from it. Bridges are numbered along the chain shown (N, C = ends). [ ]: non-standard residue; d: D form. The star is where a group is joined. Threoninol(2S,3R) = C[C@@H](O)[C@H](CO)N*

Sequence of Cannabinoid receptor 1 (P21554 whole entry): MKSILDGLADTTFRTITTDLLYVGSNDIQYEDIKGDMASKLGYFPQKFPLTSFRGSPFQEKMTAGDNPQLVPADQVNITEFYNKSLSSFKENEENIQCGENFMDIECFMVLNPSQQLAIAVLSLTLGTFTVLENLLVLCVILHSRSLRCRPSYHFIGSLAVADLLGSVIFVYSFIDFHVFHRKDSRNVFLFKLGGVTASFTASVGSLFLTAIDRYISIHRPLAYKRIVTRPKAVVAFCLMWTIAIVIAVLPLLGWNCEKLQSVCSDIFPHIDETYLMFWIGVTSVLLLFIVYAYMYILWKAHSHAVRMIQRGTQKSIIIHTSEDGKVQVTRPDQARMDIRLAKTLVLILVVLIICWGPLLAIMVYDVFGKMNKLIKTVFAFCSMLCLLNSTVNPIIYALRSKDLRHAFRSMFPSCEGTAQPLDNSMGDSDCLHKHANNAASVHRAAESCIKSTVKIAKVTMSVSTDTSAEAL
Sequence of Voltage-gated inwardly rectifying potassium channel KCNH2 (Q12809 whole entry): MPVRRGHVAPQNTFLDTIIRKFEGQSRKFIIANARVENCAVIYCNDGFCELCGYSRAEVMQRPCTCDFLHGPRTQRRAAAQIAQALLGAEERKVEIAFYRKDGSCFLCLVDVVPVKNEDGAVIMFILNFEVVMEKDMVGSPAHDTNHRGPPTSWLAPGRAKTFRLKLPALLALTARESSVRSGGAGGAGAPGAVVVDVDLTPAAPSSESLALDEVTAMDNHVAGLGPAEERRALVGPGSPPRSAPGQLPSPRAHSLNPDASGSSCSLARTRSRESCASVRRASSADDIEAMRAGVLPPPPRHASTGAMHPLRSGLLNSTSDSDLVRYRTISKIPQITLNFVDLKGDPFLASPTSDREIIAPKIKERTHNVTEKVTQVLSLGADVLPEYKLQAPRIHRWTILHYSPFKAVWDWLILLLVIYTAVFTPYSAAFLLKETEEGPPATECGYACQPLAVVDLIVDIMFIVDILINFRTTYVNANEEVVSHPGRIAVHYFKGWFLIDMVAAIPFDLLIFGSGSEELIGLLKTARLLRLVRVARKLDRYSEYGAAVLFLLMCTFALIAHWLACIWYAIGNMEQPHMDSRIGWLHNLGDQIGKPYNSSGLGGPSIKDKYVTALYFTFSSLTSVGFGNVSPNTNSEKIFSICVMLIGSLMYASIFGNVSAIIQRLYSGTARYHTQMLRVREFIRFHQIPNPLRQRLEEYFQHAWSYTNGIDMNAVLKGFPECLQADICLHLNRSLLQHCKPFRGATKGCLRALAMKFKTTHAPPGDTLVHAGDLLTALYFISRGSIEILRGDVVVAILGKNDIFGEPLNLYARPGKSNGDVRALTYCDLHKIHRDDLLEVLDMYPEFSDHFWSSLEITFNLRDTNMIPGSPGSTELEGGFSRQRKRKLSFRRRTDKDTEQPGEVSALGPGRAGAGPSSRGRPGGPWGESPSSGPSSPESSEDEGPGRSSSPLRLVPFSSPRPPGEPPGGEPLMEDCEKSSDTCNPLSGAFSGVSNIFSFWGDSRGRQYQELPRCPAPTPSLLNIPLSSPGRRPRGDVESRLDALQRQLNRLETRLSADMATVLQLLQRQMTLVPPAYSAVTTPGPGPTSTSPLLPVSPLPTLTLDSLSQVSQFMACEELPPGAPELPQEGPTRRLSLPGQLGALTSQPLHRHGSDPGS

In the case of `COc1ccccc1C(=O)N1CCC(Cc2ccccc2)CC1`, the IC50 entry in data set [1], in data set [2], in data set [3], in data set [4], in data set [5] and in data set [6] was “Not Active” throughout. The IC50 result in data set [7] and in data set [8] was “Not Active” in each case. Besides, the Ki entry in data set [2], in data set [4], in data set [5] and in data set [6] was “Not Active” each time.
Take `Cc1ccccc1C(=O)N1CCC(Cc2ccccc2)CC1`: the IC50 result in data set [1], in data set [2], in data set [3], in data set [4], in data set [5] and in data set [6] was “Not Active” in each case. Moreover, the IC50 entry in data set [7] and in data set [8] was “Not Active” throughout. In addition, the Ki result in data set [2], in data set [4], in data set [5] and in data set [6] was “Not Active” throughout.
On to `O=C1CC[C@H](N2C(=O)c3ccccc3C2=O)C(=O)N1`, for which the IC50 entry in data set [1], in data set [2], in data set [3], in data set [4], in data set [5] and in data set [6] was “Not Active” each time. Besides, the IC50 result in data set [7] and in data set [8] was “Not Active” in each case. Besides, the Ki result in data set [2], in data set [4], in data set [5] and in data set [6] was “Not Active” in each case.
`N=C(Nc1ccccc1)Nc1ccccc1`: the IC50 result in data set [1], in data set [2], in data set [3], in data set [5], in data set [6] and in data set [7] was “Not Active” throughout. The IC50 entry in data set [8] was “Not Active”. Further, the inhibition constant Ki result in data set [2], in data set [5] and in data set [6] was “Not Active” each time.
On to `C[C@@H](O)[C@H](CO)NC(=O)[C@@H]1CSSC[C@H](NC(=O)[C@H](N)Cc2ccccc2)C(=O)N[C@@H](Cc2ccccc2)C(=O)N[C@H](Cc2c[nH]c3ccccc23)C(=O)N[C@@H](CCCCN)C(=O)N[C@@H]([C@@H](C)O)C(=O)N1` (H-[dF]CF[dW]KTC-{Threoninol(2S,3R)}; disulfide 2-7), for which the IC50 result in data set [1], in data set [2], in data set [3], in data set [4], in data set [5] and in data set [6] was “Not Active” in each case. The IC50 entry in data set [7] and in data set [8] was “Not Active” throughout. Besides, the Ki result in data set [2], in data set [4], in data set [5] and in data set [6] was “Not Active” each time.
For `CC1=C(C(=O)O)N2C(=O)[C@@H](NC(=O)[C@H](N)c3ccccc3)[C@H]2SC1` [CEPHALEXIN ANHYDROUS], the IC50 entry in data set [1], in data set [2], in data set [3], in data set [5], in data set [6] and in data set [7] was “Not Active” throughout. Moreover, the IC50 result in data set [8] is given as “Not Active”. Moreover, the Ki result in data set [2], in data set [5] and in data set [6] was “Not Active” each time.
Take `O=C(N[C@H](CO)[C@H](O)c1ccc([N+](=O)[O-])cc1)C(Cl)Cl` [CHLORAMPHENICOL]: the IC50 result in data set [1], in data set [2], in data set [3], in data set [5], in data set [6] and in data set [7] was “Not Active” each time. For the same compound, the IC50 result in data set [8] was “Not Active”. The Ki entry in data set [2], in data set [5] and in data set [6] was “Not Active” in each case.
For the compound `C=C1CC[C@H](O)C/C1=C/C=C1\CCC[C@]2(C)[C@@H]([C@H](C)CCCC(C)C)CC[C@@H]12` [CHOLECALCIFEROL], the IC50 result in data set [1], in data set [2], in data set [4], in data set [5], in data set [6] and in data set [7] was “Not Active” throughout. For the same compound, the IC50 entry in data set [8] is reported as “Not Active”. Moreover, the Ki entry in data set [2], in data set [4], in data set [5] and in data set [6] was “Not Active” throughout.
With `C/C=C/C[C@@H](C)[C@@H](O)[C@H]1C(=O)N[C@@H](CC)C(=O)N(C)CC(=O)N(C)[C@@H](CC(C)C)C(=O)N[C@@H](C(C)C)C(=O)N(C)[C@@H](CC(C)C)C(=O)N[C@@H](C)C(=O)N[C@H](C)C(=O)N(C)[C@@H](CC(C)C)C(=O)N(C)[C@@H](CC(C)C)C(=O)N(C)[C@@H](C(C)C)C(=O)N1C` [CYCLOSPORINE], the IC50 result in data set [1], in data set [2], in data set [3], in data set [5], in data set [6] and in data set [7] was “Not Active” throughout. Further, the IC50 entry in data set [8] is reported as “Not Active”. Also, the Ki entry in data set [2], in data set [5] and in data set [6] was “Not Active” each time.
Turning to `C[C@]12CC[C@@H]3c4ccc(O)cc4CC[C@H]3[C@@H]1CC[C@@H]2O` [ESTRADIOL], the IC50 entry was “Not Active” in data set [1]; “Not Active” in data set [2]; 32.6 µM in data set [3] (read-out: IC50); “Not Active” in data set [5]; “Not Active” in data set [6]; “Not Active” in data set [7]. In addition, the IC50 result in data set [8] is “Not Active”. In addition, the Ki entry in data set [2] was “Not Active”; in data set [3] (read-out: Ki), 4.25 µM; in data set [5] it was “Not Active”; in data set [6], “Not Active”.
Take `COc1ccc2cc([C@H](C)C(=O)O)ccc2c1` [NAPROXEN]: the IC50 result in data set [1], in data set [3], in data set [5], in data set [6], in data set [7] and in data set [8] was “Not Active” each time. The Ki entry in data set [5] and in data set [6] was “Not Active” throughout.
As to `COC(=O)C1=C(C)NC(C)=C(C(=O)OCC(C)C)C1c1ccccc1[N+](=O)[O-]` (centres undefined) [NISOLDIPINE], the IC50 entry in data set [1], in data set [2], in data set [3], in data set [5], in data set [6] and in data set [7] was “Not Active” each time. Moreover, the IC50 result in data set [8] was “Not Active”. In addition, the Ki entry in data set [2], in data set [5] and in data set [6] was “Not Active” in each case.
Regarding `CCn1cc(C(=O)O)c(=O)c2cc(F)c(N3CCN(C)CC3)cc21` [PEFLOXACIN], the IC50 result in data set [1], in data set [2], in data set [3], in data set [5], in data set [6] and in data set [7] was “Not Active” in each case. Besides, the IC50 entry in data set [8] is “Not Active”. Also, the Ki result in data set [2], in data set [5] and in data set [6] was “Not Active” throughout.
For `CCCCOc1ccc(OCCCN2CCOCC2)cc1` [PRAMOXINE], the IC50 entry in data set [1], in data set [2], in data set [4], in data set [5], in data set [6] and in data set [7] was “Not Active” each time. For the same compound, the IC50 result in data set [8] is “Not Active”. Further, the Ki entry in data set [2], in data set [4], in data set [5] and in data set [6] was “Not Active” in each case.
